Patent publication US20160346291A1, “COMPOSITIONS AND THERAPEUTIC METHODS FOR ACCELERATED PLAQUE REGRESSION” (Resverlogix Corp, priority 2013, published 2016)

tested on: ApoA-I mRNA; assay: ApoA-I mRNA quantitation in HepG2 cells (real-time PCR); format: cell-based; set-up: key: Active: An active compound is one that causes a >15% increase in ApoA-I mRNA at a concentration less than or equal to 100 uM; settings: concentration less than or equal to 100 uM, fold induction relative to DMSO control
Description: At time of harvesting, the spent media was removed from the HepG2 cells and immediately placed on ice (for immediate use) or at −80° C. (for future use) in ApoA-I and albumin ELISAs. The cells remaining in the plate wells were rinsed in 200 μL PBS. PBS was carefully removed to avoid removing any loosely attached cells.
Once the PBS was removed, 85 μL cell lysis solution was added to the cells in each well and incubated for 5-10 min at room temperature, to allow for complete cell lysis and detachment. mRNA was then prepared using the “mRNA Catcher PLUS plate” from Invitrogen, according to the protocol supplied. After the last wash, as much wash buffer as possible was aspirated without allowing the wells to dry. Elution Buffer (E3, 80 μL) was then added to each well. mRNA was then eluted by incubating the mRNA Catcher PLUS plate with Elution Buffer for 5 min at 68° C. and then immediately placing the plate on ice.
The eluted mRNA was isolated and then used in a one-step real-time […]-PCR reaction, using components of the Ultra Sense Kit together with Applied Biosystems primer-probe mixes. Real-time PCR data was analyzed, using the Ct values, to determine the fold induction of each unknown sample, relative to the control (that is, relative to the control for each independent DMSO concentration).
The following compounds of Formula I were evaluated in this assay. An active compound is one that causes a >15% increase in ApoA-I mRNA at a concentration less than or equal to 100 uM.

Structure (SMILES) | Effect on ApoA-I mRNA levels
CNC(=O)NCCOc1c(C)cc(-c2nc3cc(OC)cc(OC)c3c(=O)[nH]2)cc1C [1-(2-(4-(5,7-dimethoxy-4-oxo-3,4-dihydroquinazolin-2-yl)-2,6-dimethylphenoxy)ethyl)-3-methylurea] | Active
COc1cc(OC)c2c(=O)[nH]c(-c3ccc(N4CCOCC4)cc3)nc2c1 [5,7-dimethoxy-2-(4-morpholinophenyl)quinazolin-4(3H)-one] | Active
COc1cc(OC)c2c(=O)[nH]c(-c3ccc(OC)c(CN4CCOCC4)c3)nc2c1 [5,7-dimethoxy-2-(4-methoxy-3-(morpholinomethyl)phenyl)quinazolin-4(3H)-one] | Active
COc1cc(OC)c2c(=O)[nH]c(-c3ccccc3C)nc2c1 [5,7-dimethoxy-2-o-tolylquinazolin-4(3H)-one] | Active
COc1cc(OC)c2c(=O)[nH]c(-c3cc(C)c(OCCN4CCOCC4)c(C)c3)nc2c1 [2-(3,5-dimethyl-4-(2-morpholinoethoxy)phenyl)-5,7-dimethoxyquinazolin-4(3H)-one] | Active
COc1cc(OC)c2cnc(-c3cc(C)c(OCCN4CCOCC4)c(C)c3)cc2c1 [4-(2-(4-(6,8-dimethoxyisoquinolin-3-yl)-2,6-dimethylphenoxy)ethyl)morpholine] | Active
COc1cc2nc(-c3ccc(N(CCO)CCO)cc3)[nH]c(=O)c2cc1OC [2-(4-(bis(2-hydroxyethyl)amino)phenyl)-6,7-dimethoxyquinazolin-4(3H)-one] | Active
COc1cc(OC)c2c(=O)[nH]c(-c3ccccc3Cl)nc2c1 [2-(2-chlorophenyl)-5,7-dimethoxyquinazolin-4(3H)-one] | Active
COc1cc(OC)c2c(=O)[nH]c(-c3cc(C)c(OCCOCc4ccccc4)c(C)c3)nc2n1 [2-(4-(2-(benzyloxy)ethoxy)-3,5-dimethylphenyl)-5,7-dimethoxypyrido[2,3-d]pyrimidin-4(3H)-one] | Inactive
COc1cc(OC)c2c(=O)[nH]c(-c3cc(C)c(OCCNS(=O)(=O)c4ccc(Cl)cc4)c(C)c3)nc2c1 [4-chloro-N-(2-(4-(5,7-dimethoxy-4-oxo-3,4-dihydroquinazolin-2-yl)-2,6-dimethylphenoxy)ethyl)benzenesulfonamide] | Active
COc1cc(OC)c2c(=O)[nH]c(-c3cc(C)cc(C)c3)nc2c1 [2-(3,5-dimethylphenyl)-5,7-dimethoxyquinazolin-4(3H)-one] | Active
COc1cc(OC)c2c(=O)[nH]c(-c3cc(C)c(OCCN4CCOCC4)c(C)c3)cc2c1 [3-(3,5-dimethyl-4-(2-morpholinoethoxy)phenyl)-6,8-dimethoxyisoquinolin-1(2H)-one] | Active
COc1cc(OC)c2c(=O)[nH]c(-c3cccnc3Oc3ccc(Cl)cc3)nc2c1 [2-(2-(4-chlorophenoxy)pyridin-3-yl)-5,7-dimethoxyquinazolin-4(3H)-one] | Inactive
COc1cc(OC)c2c(=O)[nH]c(-c3ccc(CN4CCOCC4)cc3)nc2c1 [5,7-dimethoxy-2-(4-(morpholinomethyl)phenyl)quinazolin-4(3H)-one] | Active
Cc1cc(-c2nc3cc(Cl)cc(Cl)c3c(=O)[nH]2)cc(C)c1OCCO [5,7-dichloro-2-(4-(2-hydroxyethoxy)-3,5-dimethylphenyl)quinazolin-4(3H)-one] | Active
CC(=O)Nc1ccc2nc(-c3cc(C)c(OCCO)c(C)c3)[nH]c(=O)c2c1 [N-(2-(4-(2-hydroxyethoxy)-3,5-dimethylphenyl)-4-oxo-3,4-dihydroquinazolin-6-yl)acetamide] | Active
COc1cc(OC)c2c(=O)[nH]c(-c3cc(C)c(OCCNS(=O)(=O)c4ccccc4)c(C)c3)nc2c1 [N-(2-(4-(5,7-dimethoxy-4-oxo-3,4-dihydroquinazolin-2-yl)-2,6-dimethylphenoxy)ethyl)benzenesulfonamide] | Active
COc1cc(OC)c2c(=O)[nH]c(-c3cc(C)c(OCCNS(=O)(=O)c4ccc(C)cc4)c(C)c3)nc2c1 [N-(2-(4-(5,7-dimethoxy-4-oxo-3,4-dihydroquinazolin-2-yl)-2,6-dimethylphenoxy)ethyl)-4-methylbenzenesulfonamide] | Active
COc1cc(OC)c2c(=O)[nH]c(-c3ccc(O)c(Cl)c3)nc2c1 [2-(3-chloro-4-hydroxyphenyl)-5,7-dimethoxyquinazolin-4(3H)-one] | Active

Structure (SMILES) | Effect on ApoA-I mRNA levels
CCCNC(=O)OCCOc1c(C)cc(-c2nc3cc(OC)cc(OC)c3c(=O)[nH]2)cc1C [2-(4-(5,7-Dimethoxy-4-oxo-3,4-dihydroquinazolin-2-yl)-2,6-dimethyl-phenoxy)ethyl propylcarbamate] | Active
COc1cc(OC)c2c(=O)[nH]c(-c3cc(C(C)(C)C)c(O)c(C(C)(C)C)c3)nc2c1 [2-(3,5-di-tert-butyl-4-hydroxyphenyl)-5,7-dimethoxyquinazolin-4(3H)-one] | Active
COc1cc(OC)c2c(=O)[nH]c(-c3ccc(OCCO)c(C)c3)nc2c1 [2-(4-(2-hydroxyethoxy)-3-methylphenyl)-5,7-dimethoxyquinazolin-4(3H)-one] | Active
COc1cc(OC)c2c(=O)[nH]c(-c3cc(C)c(OCCO)c(C)c3)nc2n1 [2-(4-(2-hydroxyethoxy)-3,5-dimethylphenyl)-5,7-dimethoxypyrido[2,3-d]pyrimidin-4(3H)-one] | Active
COc1cc(OC)c2c(=O)[nH]c(-c3cc(C)c(OCCNC(=O)c4ccc(C)cc4)c(C)c3)nc2c1 [N-(2-(4-(5,7-Dimethoxy-4-oxo-3,4-dihydroquinazolin-2-yl)-2,6-dimethylphenoxy)ethyl)-4-methylbenzamide] | Active
COc1cc(OC)c2c(=O)[nH]c(-c3cc(C)c(O)c(C)c3)nc2n1 [2-(4-hydroxy-3,5-dimethylphenyl)-5,7-dimethoxypyrido[2,3-d]pyrimidin-4(3H)-one] | Active
COc1cc(OC)c2c(=O)[nH]c(-c3cc(C)c(OCCO)c(C)c3)nc2c1 [2-(4-(2-hydroxyethoxy)-3,5-dimethylphenyl)-5,7-dimethoxyquinazolin-4(3H)-one] | Active
COc1cc2nc(-c3cc(C)c(O)c(C)c3)[nH]c(=O)c2c(OC)c1CN1CCOCC1 [2-(4-hydroxy-3,5-dimethylphenyl)-5,7-dimethoxy-6-(morpholinomethyl)quinazolin-4(3H)-one] | Active
COc1ccc2nc(-c3cc(C)c(OCCO)c(C)c3)[nH]c(=O)c2c1 [2-(4-(2-hydroxyethoxy)-3,5-dimethylphenyl)-6-methoxyquinazolin-4(3H)-one] | Active
COc1cc(OC)c2c(=O)[nH]c(-c3cc(C)nc(Cl)c3)nc2c1 [2-(2-chloro-6-methylpyridin-4-yl)-5,7-dimethoxyquinazolin-4(3H)-one] | Active
CNC(=O)c1ccccc1C(=O)NCCOc1c(C)cc(-c2nc3cc(OC)cc(OC)c3c(=O)[nH]2)cc1C [N1-(2-(4-(5,7-dimethoxy-4-oxo-3,4-dihydroquinazolin-2-yl)-2,6-dimethylphenoxy)ethyl)-N2-methylphthalamide] | Active
CNC(=O)OCCOc1c(C)cc(-c2nc3cc(OC)cc(OC)c3c(=O)[nH]2)cc1C [2-(4-(5,7-Dimethoxy-4-oxo-3,4-dihydroquinazolin-2-yl)-2,6-dimethyl-phenoxy)ethyl methylcarbamate] | Active
COc1cc(OC)c2c(=O)[nH]c(-c3ccc(O)c(CCO)c3)nc2c1 [2-(4-hydroxy-3-(2-hydroxyethyl)phenyl)-5,7-dimethoxyquinazolin-4(3H)-one] | Active
COc1cc(OC)c2c(=O)[nH]c(-c3cc(C)c(OCCNS(C)(=O)=O)c(C)c3)nc2c1 [N-(2-(4-(5,7-dimethoxy-4-oxo-3,4-dihydroquinazolin-2-yl)-2,6-dimethylphenoxy)ethyl)methanesulfonamide] | Active
COc1cc2nc(-c3cc(C)c(OCC(N)=O)c(C)c3)[nH]c(=O)c2cc1OC [2-(4-(6,7-dimethoxy-4-oxo-3,4-dihydroquinazolin-2-yl)-2,6-dimethylphenoxy)acetamide] | Active
COc1cc2nc(-c3ccc4c(c3)OCCO4)[nH]c(=O)c2cc1OC [2-(2,3-dihydrobenzo[b][1,4]dioxin-6-yl)-6,7-dimethoxyquinazolin-4(3H)-one] | Active
COc1cc(OC)c2c(=O)[nH]c(-c3cc(C)c(OCCN4CCCC4)c(C)c3)nc2c1 [2-(3,5-dimethyl-4-(2-(pyrrolidin-1-yl)ethoxy)phenyl)-5,7-dimethoxyquinazolin-4(3H)-one] | Active
COc1cc2c(c(OC)c1)S(=O)(=O)NC(c1cc(C)c(O)c(C)c1)=C2 [6,8-dimethoxy-3-(4-hydroxy-3,5-dimethylphenyl)-2H-1,2-benzothiazine-1,1-dioxide] | Active
